# Measurements reported in publication PMC10525135, “Computationally Designed AMPs with Antibacterial and Antibiofilm Activity against MDR Acinetobacter baumannii” (Antibiotics, 2023).
# Where two headings read alike, the source gives them in different places. Marks after values point to notes of the source that are not given here. Residues, ends and D or L forms follow the SMILES beside them. No end group written: not given here.
# Tests used:
# [1] = system: AB5075 pre-formed (24 h) biofilm; format: cell-based, Acinetobacter baumannii
# Method: The MBEC assay measures the lowest concentration of an antimicrobial agent that can eradicate established biofilms. Using the MBEC assay in the Biofilm Inoculator 96-well base (Innovotech Cat #1911, Edmonton, AB, Canada) and following the manufacturer’s protocol, 150 µL (n = 6) of 1 × 10^6 CFU/mL of AB5075 in TSB was incubated for 24 h at 37 °C at 110 rpm for biofilm formation. The lid containing pegs was rinsed with sterile PBS for 5 min, and then the lid was placed in a peptide challenge polypropylene 96-well plate containing a decreasing series of drug concentrations and incubated for 24 h at 37 °C at 110 rpm. Pegs were washed three times with tap water, heat-fixed for 70 °C for 1 h, and stained with 0.1% crystal violet for 15 min. Excess stain was rinsed off with tap water and allowed to dry. Stained pegs were resolubilized with 200 µL of 33% glacial acetic acid. OD590 was obtained to measure the remaining biofilm. Pegs with only bacteria served as the growth control and 100% biofilm control. Media alone and media with a peptide/drug served as the sterility controls. […] The experiment was performed twice.
# A. baumannii BAA-1710 = format: cell-based, Acinetobacter baumannii
# Method: (§1) Minimum inhibitory concentration (n = 3) was performed according to the CLSI protocols with a minor modification, in which Difco Mueller Hinton broth (BD 275730, Franklin Lakes, NJ, USA) was used instead of cation-adjusted Mueller Hinton broth following Wiegand et al.’s standardized protocol for testing AMPs. Bacteria were grown overnight in an opaque colony, and the concentration was determined using McFarland’s technique. An aliquot of 50 µL of 1 × 10^6 CFU/mL of bacteria was incubated with a decreasing series of peptide concentration to achieve a final bacterial concentration of 5 × 10^5 CFU/mL at 37 °C 5% CO2 for 20–24 h in Difco Mueller Hinton broth. Dilutions were performed in a 96-well polypropylene plate (Corning 3879, Corning, NY, USA). This is critical to avoid peptide binding to the plate. Results were obtained by measuring bacterial growth at OD600 nm. LL-37 and polymyxin B were used as positive controls. Samples containing only the medium and medium with peptides were used as the sterility controls and samples containing only bacteria in MHB served as the growth control. Each experiment was performed twice, and one representative experiment is shown.
# [2] = system: A. baumannii strains AB5075, BAA-1710, -1794, and -1800; format: cell-based, Acinetobacter baumannii
# Method: as §1
# A. baumannii BAA-1794 = format: cell-based, Acinetobacter baumannii
# Method: as §1
# [3] = system: defibrinated human red blood cells; assay: Hemolysis; format: cell-based; settings: 2% hRBC in PBS, 1 h 37 °C, OD540, relative to Triton X-100, n = 3
# Method: To measure the hemolytic activity of peptides, 2% human red blood cells were added to various dilutions of peptide reconstituted in PBS in a sterile U-bottom polypropylene 96-well plate following a protocol developed in our laboratory Briefly, defibrinated human blood was obtained from de-identified healthy donors from BioIVT (Westbury, NY, USA). An aliquot (1 mL) of blood was centrifuged at 1600× g for 10 min and plasma was discarded, and then 1 mL of sterile 1× PBS (HyClone) was used to wash red blood cells at least three times. In the last wash step, the supernatant was discarded, and the pallet was resuspended with 750 µL of sterile PBS. RBC suspension (2% RBC) was prepared by adding 200 µL of washed RBCs to 9.8 mL of sterile 1× PBS. A total of 50 µL of 2% RBCs were added to each well (n = 3) containing diluted peptides, resulting in a final peptide concentration of 100, 10, and 1 μg/mL. A total of 2% RBCs with 1× PBS alone served as the negative control (no peptide), and 2% RBC in Triton X-100 served as the positive control. The plate was incubated for 1 h at 37 °C and then centrifuged at 1000 rpm for 2 min. The supernatant was transferred to a fresh 96-well plate (tissue culture-treated Falcon 353072) and read at OD540. The percentage of hemolysis was calculated based on the 100% hemolysis control (Triton X-100). The experiment was repeated twice.
# [4] = system: A. baumannii BAA-1800 biofilm
# Method: The MBIC assay measures the lowest concentration of a compound that inhibits the biofilm formation of an organism. A series of decreasing peptide concentrations starting from 64 μg/mL to 0.25 μg/mL (100 µL) were incubated with 1 × 10^5 CFU of A. baumannii in 100 µL of Tryptic Soy broth (TSB) in a polystyrene 96-well plate (Falcon 353072, Corning, NY, USA) for 24 h at 37 °C to assess biofilm formation inhibition, as described previously with minor modifications. After the incubation of bacteria with AMPs, OD600 nm was measured for approximate bacterial growth. Media were carefully removed, and wells (n = 3) were rinsed with tap water. Plates were heat-fixed at 70 °C for 1 h, and 200 µL of 0.1% crystal violet diluted in deionized water were added to wells and allowed to incubate for 15 min. Excess stain was rinsed off with tap water, and the plates were air-dried. After that, 200 µL of 33% glacial acetic acid was added to resolubilize the stain, and biofilm mass was measured by a spectrophotometric reading at OD590. Bacteria alone (no treatment) served as the 100% biofilm control, and media alone and media with a peptide/drug were used as the sterility control and the 0% biofilm control.
# AB5075 = system: AB5075
# Method: Bacteria were grown in 1 mL of MHB for 24 h. Experimental tubes that show growth in the presence of peptide/drug concentration were diluted 1:100. […] Colistin is reported to induce resistance within approximately 5–7 days for A. baumannii.
# A. baumannii BAA-1800 = format: cell-based, Acinetobacter baumannii
# Method: as §1
# [5] = system: A. baumannii AB5075 (MRSN959); format: cell-based, Acinetobacter baumannii
# Method: as §1
# [6] = MBEC100, AB5075 24 h pre-formed biofilm on pegs, 24 h challenge, crystal violet OD590, n = 6
# [7] = A. baumannii BAA-1710, Difco Mueller Hinton broth, 5 × 10^5 CFU/mL, 37 °C 5% CO2, 20–24 h, OD600, n = 3
# [8] = summary over MDR A. baumannii strains of Table 3
# [9] = A. baumannii BAA-1794, Difco Mueller Hinton broth, 5 × 10^5 CFU/mL, 37 °C 5% CO2, 20–24 h, OD600, n = 3
# [10] = A. baumannii BAA-1800, TSB, 24 h 37 °C, crystal violet
# [11] = A. baumannii BAA-1800, TSB, polystyrene plate, 24 h 37 °C, crystal violet OD590, n = 3
# [12] = AB5075 passaged with subinhibitory drug
compound,measurement,setting,value
CC[C@H](C)[C@H](NC(=O)[C@H](CCCCN)NC(=O)[C@H](CCC(=O)O)NC(=O)[C@H](CCCCN)NC(=O)[C@H](CO)NC(=O)[C@H](CCCCN)NC(=O)[C@H](CCCNC(=N)N)NC(=O)[C@H](Cc1ccccc1)NC(=O)[C@H](Cc1ccccc1)NC(=O)[C@H](CC(=O)O)NC(=O)CNC(=O)[C@H](CC(C)C)NC(=O)[C@@H](N)CC(C)C)C(=O)NCC(=O)N[C@@H](CCCCN)C(=O)N[C@@H](CCC(=O)O)C(=O)N[C@@H](Cc1ccccc1)C(=O)N[C@@H](CCCCN)C(=O)N[C@@H](CCCNC(=N)N)C(=O)N[C@H](C(=O)N[C@H](C(=O)N[C@@H](CCC(N)=O)C(=O)N[C@@H](CCCNC(=N)N)C(=O)N[C@H](C(=O)N[C@@H](CCCCN)C(=O)N[C@@H](CC(=O)O)C(=O)N[C@@H](Cc1ccccc1)C(=O)N[C@@H](CC(C)C)C(=O)N[C@@H](CCCNC(=N)N)C(=O)N[C@@H](CC(N)=O)C(=O)N[C@@H](CC(C)C)C(=O)N[C@H](C(=O)N1CCC[C@H]1C(=O)N[C@@H](CCCNC(=N)N)C(=O)N[C@H](C(=O)N[C@@H](CCC(=O)O)C(=O)N[C@@H](CO)C(=O)O)[C@@H](C)O)C(C)C)[C@@H](C)CC)C(C)C)[C@@H](C)CC [LL-37],MBEC50,"[1]; AB5075 24 h pre-formed biofilm, crystal violet",4 µg/mL
same,MBEC,[1]; [6],~32 µg/mL
same,MIC,A. baumannii BAA-1710; [7],32 µg/mL
same,MIC across the tested strains,[2]; [8],8 to 32 µg/mL
same,MIC,A. baumannii BAA-1794; [9],16 to 32 µg/mL
same,MIC,"A. baumannii BAA-1794; A. baumannii BAA-1794, experiment shown in Figure S4",32 µg/mL
same,Hemolysis,[3]; 10 µg/mL,5.4%
same,Hemolysis,[3]; 100 µg/mL,22%
same,MBIC50,[4]; [10],~ 32 µg/mL
same,MBIC100,[4]; [11],64 µg/mL
"CC[C@H](C)CCCCC(=O)N[C@@H](CCN)C(=O)N[C@H](C(=O)N[C@@H](CCN)C(=O)N[C@H]1CCNC(=O)[C@H]([C@@H](C)O)NC(=O)[C@H](CCN)NC(=O)[C@H](CCN)NC(=O)[C@H](CC(C)C)NC(=O)[C@@H](CC(C)C)NC(=O)[C@H](CCN)NC1=O)[C@@H](C)O [colistin] (HELM PEPTIDE1{[CC[C@H](C)CCCCC(=O)[*:2]].[Dab].T.[Dab].[Dab].[Dab].[dL].L.[Dab].[Dab].T}$PEPTIDE1,PEPTIDE1,5:R3-11:R2$$$V2.0; N-terminus assumed; bridges inferred)","MIC fold change reached, compared to the initial growth-inhibitory concentration","AB5075; AB5075, exposure for 15 days",512 × MIC
same,MIC before exposure,"AB5075; AB5075, initial MIC (passage 0)",0.5 µg/mL
same,MIC after the fifth day of exposure,AB5075; [12],64 µg/mL
same,MIC fold change after the fifth day,AB5075; [12],128 MIC fold
FLKKIWKLLGKLL-NH2 [HRZN-16],MIC,A. baumannii BAA-1710; BAA-1710,16 µg/mL
same,MIC,A. baumannii BAA-1800; BAA-1800,16 µg/mL
same,MIC across the tested strains,[2]; BAA-1710,16 µg/mL
same,MIC,A. baumannii BAA-1794; BAA-1794,16 µg/mL
same,MIC,[5]; AB5075 (MRSN959),16 µg/mL
FLPWISKFLGKIL-NH2 [HRZN-15],MBEC,[1]; 24 h,16 µg/mL
same,MBEC50,[1]; 24 h,8 µg/mL
same,MIC,A. baumannii BAA-1710; BAA-1710,4 µg/mL
same,MIC,A. baumannii BAA-1800; BAA-1800,4 µg/mL
same,MIC across the tested strains,[2]; BAA-1710,4 µg/mL
same,MIC,A. baumannii BAA-1794; BAA-1794,4 µg/mL
same,MIC at the 10th passage,AB5075; AB5075 passaged with peptide,8 µg/mL
same,MBIC50,"[4]; BAA-1800, 24 h",~ 4 µg/mL
same,MBIC100,"[4]; BAA-1800, 24 h",8 µg/mL
FLWRISKFLGKKL-NH2 [HRZN-13],MIC,A. baumannii BAA-1710; [7],32 µg/mL
same,MIC,"A. baumannii BAA-1800; A. baumannii BAA-1800, Difco Mueller Hinton broth, 5 × 10^5 CFU/mL, 37 °C 5% CO2, 20–24 h, OD600, n = 3",64 µg/mL
same,MIC across the tested strains,[2]; [8],32 to 64 µg/mL
same,MIC,A. baumannii BAA-1794; [9],64 µg/mL
same,MIC,"[5]; A. baumannii AB5075 (MRSN959), Difco Mueller Hinton broth, 5 × 10^5 CFU/mL, 37 °C 5% CO2, 20–24 h, OD600, n = 3",32 µg/mL
same,Hemolysis,[3]; 100 µg/mL,0.7%
FLWRISKFLGRKL-NH2 [HRZN-14],MIC,A. baumannii BAA-1710; BAA-1710,32 µg/mL
same,MIC,A. baumannii BAA-1800; BAA-1800,32 µg/mL
same,MIC across the tested strains,[2]; BAA-1710,16 to 64 µg/mL
same,MIC,A. baumannii BAA-1794; BAA-1794,64 µg/mL
KLWKLLKKLGRLL-NH2 [HRZN-17],MIC,A. baumannii BAA-1710; BAA-1710,32 µg/mL
same,MIC,A. baumannii BAA-1800; BAA-1800,32 µg/mL
same,MIC across the tested strains,[2]; BAA-1710,32 µg/mL
same,MIC,A. baumannii BAA-1794; BAA-1794,32 µg/mL
same,MIC,[5]; AB5075 (MRSN959),32 µg/mL
VRLIVAVRIWRR-NH2 [IDR-1018],MBEC,[1]; [6],>32 µg/mL
same,MBIC50,[4]; [10],~ 32 µg/mL
same,MBIC100,[4]; [11],>64 * µg/mL
